How the values were obtained:
[1] = tested on: human mast cell line HMC-1; assay: Mast cell degranulation in vitro: histamine concentration in culture medium by sandwich-ELISA; assay type: cell-based; conditions: for responsiveness of HMC-1 cells (degranulation) at low calcium: low calcium concentration; for induction of mast cell degranulation (histamine concentration in culture supernatant): calcium concentration elevated to 1 mM, histamine 10 minutes after addition; for inhibition of cholinergic agonist-induced mast cell degranulation (histamine concentration in culture supernatant): neramexane 10E-6M to 10E-16M added 5 minutes prior to cholinergic stimulus, histamine determined 10 minutes after addition
Protocol: The human mast cell line HMC-1 is obtained from J. H. Butterfield (Minnesota, USA) and cultured under standard conditions in RPMI Medium 1640 (GIBCO, Karlsruhe, Germany) at 37° C. For functional assays, the calcium concentration of the medium is adjusted to 1 mM.
The Mast cell degranulation is monitored by determination of histamine concentration in the culture medium using a sandwich-ELISA from IBL (Hamburg, Germany).Histamine concentration is determined in untreated cells, medium without cells, HMC-1 cells treated with calcimycin, (a calcium ionophore,used as positive control). Additional controls to check reagibilty of the cells are LPS (lipopolysaccharide) and PMA (phorbol 12-myristate 13-acetate). Histamine concentration is determined 10 minutes after addition of the respective substances. Nicotine and choline are used as stimulus for nAChR, muscarine as stimulus for mAChR, and a combination of acetylcholine and eserine (an acetylcholinesterase inhibitor) is used as pancholinergic stimulus. Neramexane is tested at concentrations ranging from 10E-6M to 10E-16M and is added to the culture medium 5 minutes prior to the respective cholinergic stimulus. All experiments are performed twice in quadruplicate.
Statistical analysis is performed using the Wilcoxon sum-of-ranks test (available on www.statpages.net).
In order to determine the sensitivity of mast cells towards cholinergic signals, the HMC-1 cell line cultured under standard conditions with either low or high calcium concentrations is used.

[2] = molecular target: α9α10 nicotinic Acetylcholine Receptor (Rattus norvegicus, UniProt P43144+Q9JLB5); conditions: cited from earlier work
α9α10 nicotinic Acetylcholine Receptor, sequence (P43144 26-479): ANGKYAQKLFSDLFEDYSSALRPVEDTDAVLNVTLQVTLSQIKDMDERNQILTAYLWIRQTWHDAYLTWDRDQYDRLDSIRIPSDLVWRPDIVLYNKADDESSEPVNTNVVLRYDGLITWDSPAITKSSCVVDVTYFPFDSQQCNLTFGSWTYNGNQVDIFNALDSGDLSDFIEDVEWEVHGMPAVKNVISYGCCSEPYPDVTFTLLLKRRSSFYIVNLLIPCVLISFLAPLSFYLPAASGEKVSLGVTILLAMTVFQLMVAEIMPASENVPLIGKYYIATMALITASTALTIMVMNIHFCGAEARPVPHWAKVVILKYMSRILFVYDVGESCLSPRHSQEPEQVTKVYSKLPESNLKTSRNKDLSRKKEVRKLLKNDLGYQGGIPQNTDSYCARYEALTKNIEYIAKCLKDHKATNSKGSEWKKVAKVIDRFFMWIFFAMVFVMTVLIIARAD
α9α10 nicotinic Acetylcholine Receptor, sequence (Q9JLB5 25-447): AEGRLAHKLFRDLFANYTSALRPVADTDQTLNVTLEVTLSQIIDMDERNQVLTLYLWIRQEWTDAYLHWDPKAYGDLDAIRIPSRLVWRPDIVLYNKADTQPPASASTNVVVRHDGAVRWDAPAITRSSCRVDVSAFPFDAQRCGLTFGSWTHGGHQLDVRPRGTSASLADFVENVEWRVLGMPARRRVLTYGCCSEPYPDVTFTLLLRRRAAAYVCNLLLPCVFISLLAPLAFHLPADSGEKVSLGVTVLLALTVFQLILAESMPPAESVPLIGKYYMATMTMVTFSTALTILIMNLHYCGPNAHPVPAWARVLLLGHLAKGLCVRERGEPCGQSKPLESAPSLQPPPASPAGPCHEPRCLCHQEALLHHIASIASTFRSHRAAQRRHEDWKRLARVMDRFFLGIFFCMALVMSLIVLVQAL

[3] = neramexane at concentrations higher than 1 mM

Row | Compound | responsiveness of HMC-1 cells (degranulation) at low calcium [1] | induction of mast cell degranulation (histamine concentration in culture supernatant) ([1]; HMC-1 cells) | inhibition of cholinergic agonist-induced mast cell degranulation (histamine concentration in culture supernatant) ([1]; HMC-1 cells, calcium 1 mM) | also measured
1 | CNc1ccc2oc(C[C@H]3O[C@@]4(CC[C@H]3C)O[C@H]([C@H](C)C(=O)c3ccc[nH]3)[C@H](C)C[C@H]4C)nc2c1C(=O)O [calcimycine, calcimycin] | unresponsive | – | – | –
2 | C[C@@H]1O[C@H](C[N+](C)(C)C)C[C@H]1O [muscarine] | – | No histamine liberation | – | –
3 | CC1(C)CC(C)(C)CC(C)(N)C1 [Neramexane, 1-amino-1,3,3,5,5-pentamethylcyclohexane] | – | – | dose-dependent inhibitory effect | blockade of α9α10 nicotinic Acetylcholine Receptor [2]: blocker; mode of antagonism at α9α10 nicotinic Acetylcholine Receptor [2]: non-competitive antagonist; dependence of blockage on membrane potential [2, 3]: only slightly dependent on the membrane potential; effect on rate of desensitization [2, 3]: not to modify the rate of desensitization
4 | CN1CCCC1c1cccnc1 (centres unmarked) [nicotine] | unresponsive | dose-dependently produce mast cell degranulation | – | concentration sufficient to induce complete degranulation ([1]; HMC-1 cells, calcium 1 mM): Nanomolar concentrations
5 | CC1(C)CC(C)(C)CC(C)(N)C1.CS(=O)(=O)O [Neramexane-mesylate] | – | – | inhibits the observed effects in equimolar concentrations and, dose-dependently, even in lower concentrations than the respective agonist | –
